The text below walks through data of patent US20250387425A1 (ANDA BIOLOGY MEDICINE DEVELOPMENT (SHENZHEN) CO., LTD., priority 2022, published 2025).

For one series, the system named is MX1. Put plainly: Knock down of MX1 in PBMCs by siRNA, qPCR and tumor killing. It counts as cell-based, human. Conditions: MX1 depletion by siRNA vs negative control oligonucleotides. The protocol:
PBMCs were cultured in X-VIVO 15 medium (Lonza) supplemented with 10% Fetal Bovine Serum (Gemini), Penicillin-Streptomycin (Gibco), Antibiotic-Antimycotic (Gibco), 20 ng/ml recombinant human IL-7 (R&D), 50 U/ml recombinant human IL-2 (R&D) for one week. Then, TransIT-TKO kit (Mirus) was used to transient transfect MX1 siRNA into PBMCs. After 3 days of culture at 37° C., PBMCs were collected. A part of PBMCs co-incubated with tumor cells to test the killing effect of PBMCs after siRNA interference. The other part of PBMCs was extracted RNA with AllPrep DNA/RNA Kits (QIAGEN) and reverse transcription to cDNA with PrimeScript RT reagent Kit (Takara), and then used NovoStart SYBR qPCR SuperMix Plus (Novoprotein) performs qPCR to verify the efficiency of siRNA interference. The relative expressions of MX1 gene at the mRNA level was calculated by the 2-ΔΔCt method. GAPDH was used as a housekeeping gene.
(In general: Quantitative PCR measures a nucleic acid by following its amplification.)

For series [1], the system named is neoantigen-specific T-cell clones in blood. The series is described as follows: DNA-barcoded neoantigen-peptide-MHC tetramers with single-cell TCR sequencing (patient P6). It counts as cell-based, human. The settings on record: blood of patient P6.

Take “5′-GCTTTGTGAATTACAGGACAT-3′ (only one strand given, further chemistry not given here) [MX1 siRNA, siRNA transiently transfected into PBMCs to knock down MX1]”: the “anti-tumor ability of immune cells in PBMC” value in the series on MX1 is “remarkably impaired”.

With “YVECGKAFK [neoantigen-peptide-85-epitopel]”, the “tetramer-positive T-cell clones (peptide-MHC HLA-A*11:01 tetramer)” value in series [1] is listed as “No tetramer-positive T-cell clones”.
